Structures can show the parent of a compound that is named as a salt. Where two headings read alike, the source gives them in different places.
Legend:
[1] = system: Staphylococcus aureus; test: microbe, parasite or virus in culture; assay type: cell-based
[2] = system: Staphlococcus epidermidis; test: Gyrase MIC, microdilution broth method (Protocol 1); assay type: cell-based, Staphylococcus epidermidis; settings: 35 isolates tested; for MIC90: Staphylococcus epidermidis
[3] = system: Bacillus subtilis; test: as above; assay type: cell-based
[4] = system: Acinetobacter baumannii; test: Gyrase MIC against Gram negatives, microdilution broth method (Protocol 2); assay type: cell-based; settings: for MIC90: Acinetobacter baumannii, 12 isolates tested
[5] = system: Bacteroides fragilis; test: Gyrase MIC, agar dilution method (Protocol 3); assay type: cell-based; settings: 25 isolates tested
[6] = system: Enterococcus faecalis; test: Gyrase MIC, microdilution broth method (Protocol 1)
[7] = system: Enterococcus faecium; test: as above; settings: for MIC Range: 33 isolates tested
[8] = system: S. aureus (ATCC 29213); test: Mouse S. aureus kidney infection model; assay type: in vivo, CD-1 mice
Procedure: Animals: female CD-1 mice (8-10 weeks of age; 6/group), were obtained from Charles River Laboratories and were housed and maintained in accordance with the Guide to the Care and Use of Experimental Animals. Methicillin-sensitive S. aureus (MSSA) strain ATCC 29213 was obtained from the American Type Culture Collection. To prepare stocks for animal studies S. aureus was plated on Mueller Hinton Agar plates and incubated at 37° C. overnight. 3-4 colonies from the plate were used to inoculate 5 mL Mueller Hinton Broth (MHB) that was incubated for 8 hours at 37° C. with shaking at 300 RPM. The 5 mL 8-hour culture was diluted 20-fold into 100 mL and incubated overnight (12-14 hours). The bacteria were pelleted for 20 minutes at 3000× and washed twice with Phosphate-Buffered Saline (PBS) containing 0.5% Bovine Serum Albumin (BSA). Aliquots (1 mL) containing ˜1×10^10 cfu in PBS/20% Glycerol were frozen and stored at −80° C. until the day of use. Stock titers were confirmed by serial dilution and plating on Mueller Hinton agar plates. Prior to inoculation, bacterial stocks were thawed and washed once with PBS/BSA. The stocks were then diluted with PBS/BSA to a final concentration of 1×10^9 cfu/mL to give an inoculum of approximately 1-2×10^8 cfu per mouse in a volume of 100 uL. […] Injections were given intravenously via the tail vein using a sterile 30 gauge needle. Upon completion of the mouse infections, the bacterial stocks used to challenge the mice were plated and counted to verify the concentration of the inocula. […] Fisher Scientific). During collection and homogenization all of the samples were kept on ice and the homogenizer was washed thoroughly and sterilized between each sample. Homogenates were serially diluted in sterile PBS/BSA and plated on MH agar to determine bacterial counts per pair of kidneys. CD-1 mice (6/group) were challenged IV with S. aureus (ATCC 29213) at 2×10^8 cfu/mouse. […] The 30-minute and 6-hour treatment groups were treated once, while the 24-hour group received a second treatment 10 hours after the first dose. […] Burdens from pairs of kidneys for each mouse and the median for each group of mice were calculated. CD-1 mice (6/group) were challenged IV with S. aureus (ATCC 29213) at 2×10^8 cfu/mouse. After 2 hours a single group of mice (Early Control (EC)) was euthanized and the kidneys harvested, homogenized and plated to quantitate S. aureus burdens. The additional groups of infected mice were treated via oral gavage with Vehicle at 10 ml/kg (10% VitE TPGS; […] After 24 hours the groups of treated mice were euthanized and the kidneys harvested, homogenized and plated to quantitate S. aureus burdens. Burdens from pairs of kidneys for each mouse and the median for each group of mice were summarized. CD-1 mice (8/group) were challenged IV with S. aureus (ATCC 29213) at 2×10^8 cfu/mouse. After 2 hours a single group of mice (Early Control (EC)) was euthanized and the kidneys harvested, homogenized and plated to quantitate S. aureus burdens. The additional groups of infected mice were treated via oral gavage with Vehicle at 10 ml/kg (Water; […] After 24 hours the groups of treated mice were euthanized and the kidneys harvested, homogenized and plated to quantitate S. aureus burdens. Burdens from pairs of kidneys for each mouse and the median for each group of mice were summarized.

[9] = ATCC29213, Staphylococcus aureus ATCC 29213, Protocol 1, read-out: MIC
[10] = ATCC29213, Staphylococcus aureus ATCC 29213 GyrB T173I, Protocol 1
[11] = ATCC29213, Staphylococcus aureus ATCC 29213 with Mouse Serum, Protocol 1, read-out: MIC
[12] = ATCC29213, Staphylococcus aureus ATCC 29213 with Rat Serum, Protocol 1, read-out: MIC
[13] = ATCC6051, Bacillus subtilis (168) ATCC 6051
[14] = ATCC6638, Bacillus subtilis ATCC 6638
[15] = ATCC19606, Acinetobacter baumannii ATCC 19606
[16] = ATCCBAA1710, Acinetobacter baumannii ATCC BAA-1710
[17] = ATCC49624, Enterococcus faecium ATCC 49624, Protocol 1
[18] = ATCC49624, Enterococcus faecium ATCC 49624 with Laked Horse Blood, Protocol 1
[19] = 10 mg/kg oral gavage, second treatment 10 hours after first, 24 Hours
[20] = 10 mg/kg oral gavage, treated once, 6 Hours
[21] = 30 mg/kg oral gavage, second treatment 10 hours after first, 24 Hours
[22] = 30 mg/kg oral gavage, treated once, 6 Hours
[23] = 30 mg/kg oral gavage, treated once, 30 Minutes
[24] = 100 mg/kg oral gavage, second treatment 10 hours after first, 24 Hours
[25] = 100 mg/kg oral gavage, treated once, 6 Hours
[26] = 100 mg/kg oral gavage, treated once, 30 Minutes
[27] = single oral dose 10 mg/kg, after 24 hours
[28] = single oral dose 30 mg/kg, after 24 hours
[29] = single oral dose 60 mg/kg, after 24 hours
[30] = single oral dose 100 mg/kg, after 24 hours

CCNC(=O)Nc1nc2cc(-c3cnc(C(C)(C)O)nc3)cc([C@H]3CCCO3)c2[nH]1 [Compound 13, methanesulfonic acid salt of 1-ethyl-3-[5-[2-(1-hydroxy-1-methyl-ethyl)pyrimidin-5-yl]-7-[(2R)-tetrahydrofuran-2-yl]-1H-benzimidazol-2-yl]urea]
MIC90 ([1]; 67 isolates tested, Protocol 1): 0.25 µg/mL | MIC Range ([1]; 67 isolates tested, Protocol 1): 0.03 to 0.5 µg/mL | MIC [1, 9]: 0.13 µg/mL | MIC [1, 10]: 1.29 µg/mL | MIC ([1]; ATCC29213, Staphylococcus aureus ATCC 29213 with Human Serum, Protocol 1, read-out: MIC): 0.31 µg/mL | MIC [1, 11]: 2 µg/mL | MIC [1, 12]: 0.53 µg/mL | MIC Range [2]: 0.03 to 0.25 µg/mL | MIC90 [2]: 0.12 µg/mL | MIC [3, 13]: > 8 µg/mL | MIC [3, 14]: > 8 µg/mL | MIC [4, 15]: > 16 µg/mL | MIC [4, 16]: > 16 µg/mL | MIC90 [4]: > 8 µg/mL | MIC90 [5]: > 16 µg/mL | MIC90 [6]: 0.25 µg/mL | MIC Range ([6]; 34 isolates tested, Protocol 1): 0.03 to 0.25 µg/mL | MIC ([6]; ATCC29212): 0.081 µg/mL | MIC90 [7]: 0.5 µg/mL | MIC Range ([7]; Protocol 1): 0.12 to 0.5 µg/mL | MIC [7, 17]: 0.25 µg/mL | MIC [7, 18]: 0.39 µg/mL

CCNC(=O)Nc1nc2cc(-c3cnc(C(C)(C)O)nc3)c(F)c([C@H]3CCCO3)c2[nH]1 [Compound 23A, methanesulfonic acid salt of 1-ethyl-3-[6-fluoro-5-[2-(1-hydroxy-1-methyl-ethyl)pyrimidin-5-yl]-7-[(2R)-tetrahydrofuran-2-yl]-1H-benzimidazol-2-yl]urea]
MIC90 ([1]; 67 isolates tested, Protocol 1): 0.03 µg/mL | MIC [1, 9]: 0.021 µg/mL | MIC [1, 10]: 0.3 µg/mL | MIC [1, 11]: 0.5 µg/mL | MIC [1, 12]: 0.18 µg/mL | MIC Range [2]: 0.008 to 0.03 µg/mL | MIC90 [2]: 0.03 µg/mL | MIC [3, 13]: 4 µg/mL | MIC [3, 14]: 2 µg/mL | MIC [4, 15]: 8 µg/mL | MIC [4, 16]: 6 µg/mL | MIC90 [4]: > 8 µg/mL | MIC90 [5]: 16 µg/mL | MIC Range [5]: 1 to 16 µg/mL | Median Kidney Burden (Log cfu/kidneys) ([8]; 10 mg/kg oral gavage 2 h post challenge, treated once, time of treatment 30 Minutes): 4.84 Log cfu/kidneys | Log Difference vs. Vehicle Control [8, 19]: −1.87 | Median Kidney Burden (Log cfu/kidneys) [8, 19]: 4.48 Log cfu/kidneys | Log Difference vs. Vehicle Control [8, 20]: −0.37 | Median Kidney Burden (Log cfu/kidneys) [8, 20]: 4.84 Log cfu/kidneys | Log Difference vs. Vehicle Control ([8]; 10 mg/kg oral gavage, treated once, 30 Minutes): −0.14 | Log Difference vs. Vehicle Control [8, 21]: −2.90 | Median Kidney Burden (Log cfu/kidneys) [8, 21]: 3.44 Log cfu/kidneys | Log Difference vs. Vehicle Control [8, 22]: −0.59 | Median Kidney Burden (Log cfu/kidneys) [8, 22]: 4.62 Log cfu/kidneys | Log Difference vs. Vehicle Control [8, 23]: 0.00 | Median Kidney Burden (Log cfu/kidneys) [8, 23]: 4.97 Log cfu/kidneys | Log Difference vs. Vehicle Control [8, 24]: −2.86 | Median Kidney Burden (Log cfu/kidneys) [8, 24]: 3.49 Log cfu/kidneys | Log Difference vs. Vehicle Control [8, 25]: −0.66 | Median Kidney Burden (Log cfu/kidneys) [8, 25]: 4.55 Log cfu/kidneys | Log Difference vs. Vehicle Control [8, 26]: −0.08 | Median Kidney Burden (Log cfu/kidneys) [8, 26]: 4.89 Log cfu/kidneys | kidney burden, compound- versus vehicle-treated mice ([8]; 30 minutes after the initial treatment, 10, 30, 100 mg/kg oral): no difference in kidney burden | log reduction versus the 30 minute early control ([8]; 6 hours after the first dose, 30 and 100 mg/kg oral): 0.3-0.4 log | reduction of bacterial burdens in the kidneys versus time-matched vehicle control ([8]; 6 hours after the first dose, all compound treatments (10, 30, 100 mg/kg oral)): 0.4-0.6 logs | log reduction versus the 24-hour vehicle-treated control ([8]; 24 hours, 10 mg/kg BID oral): 1.8 log | log reduction versus the 24-hour vehicle-treated control ([8]; 24 hours, 30 and 100 mg/kg BID oral): 2.8-2.9 log | log reductions versus the 30-minute vehicle-treated control ([8]; 24 hours, 30 and 100 mg/kg oral): approximately 1.5 log | Median Kidney Burden (Log cfu/kidneys) ([8]; single oral dose 10 mg/kg 2 h post challenge, after 24 hours): 4.73 Log cfu/kidneys | Log Reduction vs. Early Control [8, 27]: 0.00 | Log Reduction vs. Late Control [8, 27]: −1.90 | log reductions versus vehicle control [8, 27]: 1.9 log | Log Reduction vs. Early Control [8, 28]: −0.40 | Log Reduction vs. Late Control [8, 28]: −2.31 | Median Kidney Burden (Log cfu/kidneys) [8, 28]: 4.32 Log cfu/kidneys | log reductions versus vehicle control [8, 28]: 2.3 log | Log Reduction vs. Early Control [8, 29]: −1.21 | Log Reduction vs. Late Control [8, 29]: −3.11 | Median Kidney Burden (Log cfu/kidneys) [8, 29]: 3.52 Log cfu/kidneys | log reductions versus vehicle control [8, 29]: 3.1 log | Log Reduction vs. Early Control [8, 30]: −1.42 | Log Reduction vs. Late Control [8, 30]: −3.32 | Median Kidney Burden (Log cfu/kidneys) [8, 30]: 3.31 Log cfu/kidneys | log reductions versus vehicle control [8, 30]: 3.3 log | reduction of bacterial burdens versus the early control ([8]; single oral doses of 60 and 100 mg/kg, after 24 hours): 1.2-1.4 logs | MIC90 [7]: 0.12 µg/mL | MIC Range ([7]; Protocol 1): 0.003 to 0.25 µg/mL | MIC [7, 17]: 0.11 µg/mL | MIC [7, 18]: 0.11 µg/mL
